Data as given in patent US6207656A, “Vitamin D analogues and their neuronal effects” (Cephalon, Inc., priority 1998, dated 2001).

Legend:
hippocampal ChAT = assay: Fimbria fornix lesion model, hippocampal ChAT activity; format: in vivo, rat; details: oral gavage daily 14 days, FIGS. 4 to 8; * p<0.05 vs vehicle-treated lesioned controls
From the text: The fimbria fornix lesion model is an established protocol for assessing cholinergic neuronal survival in the basal forebrain. […] Contained within the region of the brain 10 are cholinergic neurons 16. A healthy cholinergic neuron has a cell body 18, and one or more axons 20. Each of the axons 20 have a free end, referred to as a terminal 22, that extends into the hippocampus 14. In the fimbria fornix lesion model, damaged cholinergic neurons 24 are produced by transecting a portion of the axons 20 at a location 26 between the hippocampus 14 and the cell body 18. As a result of this transection, damaged cell bodies 28 are produced that no longer have cholinergic axons 30 and terminals 32. These damaged cell bodies 28, also lose cholinergic cell body markers 34 and stop producing ChAT. The fimbria fornix lesion model is used to study methods of restoring ChAT production, such as through stimulating increased production of ChAT in the healthy cholinergic neurons, and/or through restoring normal functioning of the damaged cholinergic neurons 24.
For the studies described herein, animals were anesthetized with pentobarbital and placed in a stereotaxic apparatus. The skull was opened on the left side, a knife was positioned 1.2 mm posterior to bregma and 0.6 mm lateral to the midline. The knife was lowered to 4.5 mm below the dura into the brain and moved laterally 2 mm partially transecting the fimbria fornix. After 14 days of administration of the test compounds by oral gavage, the hippocampus was removed and homogenized.
The hippocampal ChAT activity is expressed as a percentage of the hippocampal ChAT activity of the […] control side (i.e., lesion control) in FIGS. 4 to 8.

[1] = system: ChAT producing cholinergic cells; assay: Fimbria fornix lesion model, cholinergic cell number (ChAT positive septal neurons); format: in vivo, rat
Protocol: Fimbria fornix lesioned animals treated orally with Compound (A) (n=10) or vehicle (n=10) were assessed using acetyl cholinesterase staining of both the lesion area and hippocampal formation. Animals received either Compound (A) (1 μg/day) or vehicle via oral gavage (14 days). […] Neurol. 284:187 (1989).
Coronal sections were cut at […] with a cryostat and collected throughout the medial septum. Every fourth section was processed for the visualization of ChAT positive neurons. Approximately 12 sections were assessed per brain. Cholinergic cells were counted and expressed as a ratio of lesioned to unlesioned control side. […] The results, presented in FIG. 9, indicate that lesioned animals treated with Compound (A) have an approximate 30% increase in the number of cholinergic cells as compared to vehicle treated lesioned animals.

[2] = system: rats having bilateral lesions of the fimbria-fornix; assay: Locomotor activity (hyperactivity) after bilateral fimbria-fornix lesion; format: in vivo, rat
Protocol: To determine whether low calcemic doses of vitamin D3 analogs would improve lesion-induced behavioral deficits, Compound (A) (0.1 and 1.0 μg/kg/day) was administered orally once a day (26 days) to rats having bilateral lesions of the fimbria-fornix. Bilateral lesions of the fimbria-fornix cause rats to become hyperactive. To test for hyperactivity, rats were placed in a box marked with squares, where it was observed how many squares the rats entered in a five minute period.

GDNF mRNA = assay: Induction of GDNF mRNA expression in primates; format: in vivo, monkey
Protocol: Twelve monkeys, ranging in weight from 2.0 Kg to 4.7 Kg, were divided into three groups of 4 animals each: the vehicle group (i.e., control), group dosed with 10 μg/kg/day, and group dosed with 30 μg/kg/clay. The monkeys were dosed orally for 8 days with Compound (A) and were sacrificed 5 hours after the last dosing. Brain regions were dissected and quick frozen. The dissected septi were divided into 3 preparations and two of the three regions of septum were analyzed. Total RNA was prepared and reverse transcribed and gene expression was assessed using polymerase chain reaction by the following procedure.
Total RNA was prepared by homogenizing sections of tissue in 750 μl RNAzolB™ (Biotecx Laboratories, Houston, Tex.) using a homogenizer (Tekmar, Germany) until fully homogenized and then 250 μl RNAzilB™ was added. RNA was prepared as recommended by the manufacturer (Biotecx Laboratories). […] Concentration of RNA was measured spectrophotometrically and the quality of RNA was visualized on a nondenaturing agarose gel. […]
An average of 4 PCR assays (two assays for each gene for two cDNA sets) were used in determining the induction of mRNA expression. To assure that PCR assays were within the linear range of the reaction, the linear range for each gene and each cDNA preparation was determined using serial dilutions of cDNAs. […]

vitamin D receptor = molecular target: T1, vitamin D receptor (Gallus gallus, UniProt O42392); assay: Vitamin D receptor binding (displacement of 3H-1α,25(OH)2D3)
T1 sequence (O42392 1-451): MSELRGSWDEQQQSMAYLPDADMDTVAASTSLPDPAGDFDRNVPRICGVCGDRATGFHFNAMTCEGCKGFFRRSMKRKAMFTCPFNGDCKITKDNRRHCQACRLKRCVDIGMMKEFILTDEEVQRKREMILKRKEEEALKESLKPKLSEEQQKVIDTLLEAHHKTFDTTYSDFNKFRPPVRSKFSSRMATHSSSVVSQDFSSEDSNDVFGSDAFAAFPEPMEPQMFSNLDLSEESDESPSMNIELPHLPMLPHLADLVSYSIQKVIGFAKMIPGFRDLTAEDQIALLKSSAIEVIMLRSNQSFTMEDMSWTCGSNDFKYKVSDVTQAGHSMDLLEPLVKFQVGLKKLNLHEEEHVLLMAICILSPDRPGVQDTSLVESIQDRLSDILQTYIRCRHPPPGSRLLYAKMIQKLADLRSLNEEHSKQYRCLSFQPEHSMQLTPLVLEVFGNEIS
From the text: Bound and free ^3 H-1α,25(OH2)D3 were then separated on dextran-coated charcoal, samples were centrifuged and the supernatants containing the receptor-bound ^3 H-1α,25(OH2)D3 were counted in a liquid scintillation counter.

C=C1/C(=C\C=C2/CCC[C@]3(C)[C@@H]([C@@H](C)[C@@H](C#CCC(O)(CC)CC)OCC)CC[C@@H]23)C[C@@H](O)C[C@@H]1O [Compound (A), 1(S),3(R)-dihydroxy-20(R)-(1-ethoxy-5-ethyl-5-hydroxy-2-heptyn-1-yl)-9,10-seco-pregna-5(Z),7(E),10(19)-triene]
hippocampal ChAT activity vs lesioned controls (hippocampal ChAT): significant increase in CHAT activity | increase in number of cholinergic cells vs vehicle treated lesioned animals ([1]; 1 μg/day oral gavage, 14 days (FIG. 9)): ~30% | septal neurons expressing ChAT ([1]; FIG. 9, partially fimbria fornix lesioned animals vs vehicle): increase in septal neurons expressing ChAT | locomotor activity (squares entered per 5 minutes) ([2]; 1.0 μg/kg/day oral, 26 days): reduced locomotor activity | locomotor activity caused by fimbria fornix lesions ([2]; FIG. 10 legend, oral): reduces locomotor activity | production of GDNF mRNA (GDNF mRNA; 10 and 30 μg/kg/day oral, 8 days, primate septum (FIG. 14B)): facilitated the production of NGF mRNA and GDNF mRNA | dosage of greatest GDNF mRNA production (GDNF mRNA; 10 vs 30 μg/kg/day oral): greatest at a dosage of 10 μg/kg/day | Kd (vitamin D receptor): 0.2 nM
